In article PMC7897990, “TriTOX: A novel Trichomonas vaginalis assay platform for high-throughput screening of compound libraries” (International Journal for Parasitology: Drugs and Drug …, 2021):
Where two headings read alike, the source gives them in different places.

System: Trichomonas vaginalis G3 trophozoites
[1] = HTS, parasite screen at 1 µg/mL, replicate 1
[2] = HTS, parasite screen at 1 µg/mL, replicate 1, raw absorbance
[3] = HTS, parasite screen at 1 µg/mL, replicate 2
[4] = HTS, parasite screen at 1 µg/mL, replicate 2, raw absorbance
[5] = 384-well, 25 μL, 10,000 cells/mL, 48 h, biological duplicates; hit = >50% inhibition

For `Cc1c2c(c(O)c3c(O)ccc(Cl)c13)C(=O)C1(O)C(O)=C(C(N)=O)C(=O)C(N(C)C)C1C2.Cl` (stereo not shown), the T.vaginalis_%inb_Rep1 [1] was 10.90%, the T.vaginalis_Absorbance_Rep1 [2] was 0.917 and the T.vaginalis_%inb_Rep2 [3] was 9.56%. For the same molecule, the T.vaginalis_Absorbance_Rep2 [4] was 0.784.
`CN[C@@H]1C[C@H]2O[C@@](C)([C@@H]1OC)n1c3ccccc3c3c4c(c5c6ccccc6n2c5c31)C(=O)NC4=O` [7-oxostaurosporine, reference compound] was tested, and the “T. vaginalis HTS result in words” value [5] was “active analogues”.
With `CO[C@H]1/C=C\C=C(/C)C(=O)NC2=CC(=O)C(NCCN(C)C)=C(C[C@@H](C)C[C@H](OC)[C@H](O)[C@@H](C)/C=C(\C)[C@@H]1OC(N)=O)C2=O` [17-DAAG, 17-dimethylaminoethylamino-17-demethoxygeldanamycin, reference compound] the “T. vaginalis HTS result in words” value [5] was “partial hits”.
Work on `COc1ccc(/C=C/C(=O)O)cc1O` [BIA-I1729] yielded a T.vaginalis_%inb_Rep1 (replicate 1; parasite screen at 1 µg/mL) of 11.16% and a T.vaginalis_%inb_Rep2 (replicate 2; parasite screen at 1 µg/mL) of 13.98%.
With `CN(C)[C@@H]1C(O)=C(C(N)=O)C(=O)[C@@]2(O)C(O)=C3C(=O)c4c(O)cccc4[C@@](C)(O)[C@H]3C[C@@H]12` [BIA-T1334] the T.vaginalis_%inb_Rep1 (parasite screen at 1 µg/mL, replicate 1) was 9.28% and the T.vaginalis_%inb_Rep2 (parasite screen at 1 µg/mL, replicate 2) was 5.48%.
With `CC1=CCCC(C)C(O)C(C)C(O)CCC=CC(C)C(O)C=CC(C)C(O)C(C)=CC(O[C@H]2O[C@H](CO)[C@@H](O)[C@H](O)[C@@H]2O)C(O)CC(O)CC(O)CC(O)C(C)C(O)C(C)C(O)CC(O)CC(O)C=CCC(C(C)C(O)CCCN)OC1=O` (stereo partly shown) [Desertomycin A] the T.vaginalis_%inb_Rep1 [1] was 12.39%, the T.vaginalis_Absorbance_Rep1 [2] was 0.939 and the T.vaginalis_%inb_Rep2 [3] was 12.87%. The T.vaginalis_Absorbance_Rep2 [4] was 0.798.
In the case of `CC(=O)c1c(O)cc(O)c(C(C)=O)c1O` [Diacetylphloroglucinol], the T.vaginalis_%inb_Rep1 [1] is reported as 9.32%, the T.vaginalis_Absorbance_Rep1 [2] is reported as 0.882 and the T.vaginalis_%inb_Rep2 [3] is reported as 10.70%. For the same molecule, the T.vaginalis_Absorbance_Rep2 [4] was 0.768.
With `O=C(O)C1CSC(c2ccccc2O)=N1` (stereo not shown) [Dihydroaeruginoic acid] the T.vaginalis_%inb_Rep1 [1] was 11.15%, the T.vaginalis_Absorbance_Rep1 [2] was 0.916 and the T.vaginalis_%inb_Rep2 [3] was 12.87%. For the same molecule, the T.vaginalis_Absorbance_Rep2 [4] was 0.798.
Work on `CC(C)CCC[C@@H](C)[C@@H]1CC[C@]2(C)C3=C(CC[C@@]12C)[C@@]1(C)CC[C@H](O)C(C)(C)[C@@H]1CC3` [Dihydroeuphol] yielded a T.vaginalis_%inb_Rep1 [1] of 14.92%, a T.vaginalis_Absorbance_Rep1 [2] of 0.986 and a T.vaginalis_%inb_Rep2 [3] of 10.05%. The T.vaginalis_Absorbance_Rep2 [4] was 0.759.
`COC1C(OC(N)=O)C(O)C(Oc2ccc3c(O)c(NC(=O)c4ccc(O)c(CCC(C)C)c4)c(=O)oc3c2C)OC1(C)C` (stereo not shown) [Dihydronovobiocin] gave a T.vaginalis_%inb_Rep1 [1] of 2.80%, a T.vaginalis_Absorbance_Rep1 [2] of 0.761 and a T.vaginalis_%inb_Rep2 [3] of 4.84%. It also gave a T.vaginalis_Absorbance_Rep2 [4] of 0.687.
In the case of `CC[C@]1(C)C[C@@H](OC(=O)CO)[C@]2(C)[C@H](C)CC[C@]3(CCC(=O)[C@H]32)[C@@H](C)[C@@H]1O` [Dihydropleuromutilin], the T.vaginalis_%inb_Rep1 [1] is reported as 14.27%, the T.vaginalis_Absorbance_Rep1 [2] is reported as 0.974 and the T.vaginalis_%inb_Rep2 [3] is reported as 13.23%. It also gave a T.vaginalis_Absorbance_Rep2 [4] of 0.803.
With `CC[C@H]1CCC[C@H](O)[C@@H](C)C(=O)C2=C[C@H]3[C@@H]4C[C@H](O)C[C@H]4CC[C@H]3[C@@H]2CC(=O)O1` [Dihydrospinosyn A aglycone] the T.vaginalis_%inb_Rep1 [1] was 13.89%, the T.vaginalis_Absorbance_Rep1 [2] was 0.967 and the T.vaginalis_%inb_Rep2 [3] was 12.58%. It also gave a T.vaginalis_Absorbance_Rep2 [4] of 0.794.
Work on `COc1cccc2nc3c(OC)cccc3nc12` [Dimethoxyphenazine, 1,6-] yielded a T.vaginalis_%inb_Rep1 [1] of 12.87%, a T.vaginalis_Absorbance_Rep1 [2] of 0.948 and a T.vaginalis_%inb_Rep2 [3] of 14.10%. For the same molecule, the T.vaginalis_Absorbance_Rep2 [4] was 0.815.
For `CC1=C[C@H]2C(=O)O[C@H]3C[C@@H](C/C=C(\C)[C@@H](O)[C@@H](C)/C=C/C=C4\CO[C@H]([C@@H]1O)[C@@]42O)O[C@@]1(C=C[C@H](C)[C@@H](C2CCCCC2)O1)C3` [Doramectin aglycone], the T.vaginalis_%inb_Rep1 [1] was 13.62%, the T.vaginalis_Absorbance_Rep1 [2] was 0.962 and the T.vaginalis_%inb_Rep2 [3] was 12.44%. It also gave a T.vaginalis_Absorbance_Rep2 [4] of 0.792.
`CO[C@H]1C[C@H](O[C@@H]2/C(C)=C/C[C@@H]3C[C@@H](C[C@]4(C=C[C@H](C)[C@@H](C5CCCCC5)O4)O3)OC(=O)[C@@H]3C=C(C)[C@@H](O)[C@H]4OC/C(=C\C=C\[C@@H]2C)[C@]43O)O[C@@H](C)[C@@H]1O` [Doramectin monosaccharide] showed a T.vaginalis_%inb_Rep1 [1] of 13.89%, a T.vaginalis_Absorbance_Rep1 [2] of 0.967 and a T.vaginalis_%inb_Rep2 [3] of 12.80%. It also gave a T.vaginalis_Absorbance_Rep2 [4] of 0.797.
`CO[C@H]1C[C@H](O[C@H]2[C@H](C)O[C@@H](O[C@@H]3/C(C)=C/C[C@@H]4C[C@@H](C[C@]5(C=C[C@H](C)[C@@H](C6CCCCC6)O5)O4)OC(=O)C4=C[C@H](C)[C@@H](O)[C@H]5OC/C(=C\C=C[C@@H]3C)[C@@]45O)C[C@@H]2OC)O[C@@H](C)[C@@H]1O` [Doramectin, delta2-] was tested, and the T.vaginalis_%inb_Rep1 [1] was 13.79%, the T.vaginalis_Absorbance_Rep1 [2] was 0.965 and the T.vaginalis_%inb_Rep2 [3] was 15.04%. It also gave a T.vaginalis_Absorbance_Rep2 [4] of 0.828.
In the case of `CO[C@H]1C[C@H](O[C@H]2[C@H](C)O[C@@H](O[C@@H]3/C(C)=C/C[C@@H]4C[C@@H](C[C@]5(C=C[C@H](C)[C@@H](C6CCCCC6)O5)O4)OC(=O)[C@H]4C=C(C)[C@@H](O)[C@H]5OC/C(=C\C=C\[C@@H]3C)[C@@]45O)C[C@@H]2OC)O[C@@H](C)[C@@H]1O` [Doramectin, epi-], the T.vaginalis_%inb_Rep1 [1] is reported as 16.13%, the T.vaginalis_Absorbance_Rep1 [2] is reported as 1.02 and the T.vaginalis_%inb_Rep2 [3] is reported as 15.52%. The T.vaginalis_Absorbance_Rep2 [4] was 0.877.
`CO[C@H]1C[C@H](O[C@H]2[C@H](C)O[C@@H](O[C@@H]3/C(C)=C/C[C@@H]4C[C@@H](C[C@]5(C=C[C@H](C)[C@@H](C6CCCCC6)O5)O4)OC(=O)[C@@H]4C=C(C)[C@@H](O)[C@H]5OC/C(=C\C=C\[C@@H]3C)[C@]54O)C[C@@H]2OC)O[C@@H](C)[C@@H]1O` [Doramectin] gave a T.vaginalis_%inb_Rep1 [1] of 11.20%, a T.vaginalis_Absorbance_Rep1 [2] of 0.917 and a T.vaginalis_%inb_Rep2 [3] of 11.21%. For the same molecule, the T.vaginalis_Absorbance_Rep2 [4] was 0.775.
In the case of `CC1(C)CCC[C@]2(C)[C@@H](CO)C(CO)=CC[C@@H]12` [Drimendiol], the T.vaginalis_%inb_Rep1 [1] is reported as 13.84%, the T.vaginalis_Absorbance_Rep1 [2] is reported as 0.966 and the T.vaginalis_%inb_Rep2 [3] is reported as 11.64%. It also gave a T.vaginalis_Absorbance_Rep2 [4] of 0.781.
With `CC1=CC[C@H]2C(C)(C)CCC[C@]2(C)[C@H]1CO` [Drimenol] the T.vaginalis_%inb_Rep1 [1] was 14.49%, the T.vaginalis_Absorbance_Rep1 [2] was 0.978 and the T.vaginalis_%inb_Rep2 [3] was 11.14%. For the same molecule, the T.vaginalis_Absorbance_Rep2 [4] was 0.774.
For `C=C1CC[C@H]2C(C)(C)CCC[C@]2(C)[C@H]1C[C@@]12C[C@H]3C(=O)N[C@@H](CC(C)C)C(=O)N3[C@@H]1Nc1ccccc12` [Drimentine A], the T.vaginalis_%inb_Rep1 [1] was 15.46%, the T.vaginalis_Absorbance_Rep1 [2] was 0.996 and the T.vaginalis_%inb_Rep2 [3] was 4.92%. The T.vaginalis_Absorbance_Rep2 [4] was 0.688.
Work on `C=C1CC[C@H]2C(C)(C)CCC[C@]2(C)[C@H]1C[C@@]12C[C@H]3C(=O)N4CCC=C4C(=O)N3[C@@H]1Nc1ccccc12` [Drimentine B] yielded a T.vaginalis_%inb_Rep1 [1] of 15.40%, a T.vaginalis_Absorbance_Rep1 [2] of 0.995 and a T.vaginalis_%inb_Rep2 [3] of 15.26%. It also gave a T.vaginalis_Absorbance_Rep2 [4] of 0.831.
Work on `CCCCCC(=O)C(CCCC)c1oc(=O)c(CCCC)c(O)c1CCCC` (stereo not shown) [Elasnin] yielded a T.vaginalis_%inb_Rep1 [1] of 13.95%, a T.vaginalis_Absorbance_Rep1 [2] of 0.968 and a T.vaginalis_%inb_Rep2 [3] of 11.14%. The T.vaginalis_Absorbance_Rep2 [4] was 0.774.
For `COc1cc([C@H]2[C@@]3(O)[C@H](O)[C@H]4C[C@]2(O)[C@](O)(C(=O)O4)[C@H]3C(=O)c2ccccc2)oc(=O)c1` [Enterocin], the T.vaginalis_%inb_Rep1 [1] was 13.08%, the T.vaginalis_Absorbance_Rep1 [2] was 0.96 and the T.vaginalis_%inb_Rep2 [3] was 12.38%. The T.vaginalis_Absorbance_Rep2 [4] was 0.828.
`Cc1c2c(c(O)c3c(O)cccc13)C(=O)C1(O)C(O)=C(C(N)=O)C(=O)C(N(C)C)C1C2.Cl` (stereo not shown) [Epianhydrotetracycline hydrochloride] showed a T.vaginalis_%inb_Rep1 [1] of 8.78%, a T.vaginalis_Absorbance_Rep1 [2] of 0.872 and a T.vaginalis_%inb_Rep2 [3] of 1.74%. It also gave a T.vaginalis_Absorbance_Rep2 [4] of 0.644.
`CN(C)C1C(=O)C(C(N)=O)=C(O)C2(O)C(=O)C3=C(O)c4c(O)ccc(Cl)c4C(C)(O)C3CC12.Cl` (stereo not shown) [Epichlortetracycline hydrochloride] gave a T.vaginalis_%inb_Rep1 [1] of 7.49%, a T.vaginalis_Absorbance_Rep1 [2] of 0.848 and a T.vaginalis_%inb_Rep2 [3] of 3.76%. It also gave a T.vaginalis_Absorbance_Rep2 [4] of 0.672.
For `CN(C)C1C(=O)C(C(N)=O)=C(O)C2(O)C(=O)C3=C(O)c4c(O)cccc4C(C)(O)C3C(O)C12` (stereo not shown) [Epioxytetracycline], the T.vaginalis_%inb_Rep1 [1] was 13.46%, the T.vaginalis_Absorbance_Rep1 [2] was 0.959 and the T.vaginalis_%inb_Rep2 [3] was 17.43%. It also gave a T.vaginalis_Absorbance_Rep2 [4] of 0.861.
`CC[C@H]1OC(=O)[C@H](C)[C@@H](O[C@H]2C[C@@](C)(OC)[C@@H](O)[C@H](C)O2)[C@H](C)[C@@H](O[C@@H]2O[C@H](C)C[C@H](N(C)C)[C@H]2O)[C@](C)(O)C[C@@H](C)C(=O)[C@H](C)[C@@H](O)[C@H]1C` [Erythromycin B] gave a T.vaginalis_%inb_Rep1 [1] of 4.47%, a T.vaginalis_Absorbance_Rep1 [2] of 0.792 and a T.vaginalis_%inb_Rep2 [3] of 1.66%. The T.vaginalis_Absorbance_Rep2 [4] was 0.643.
Molecule `CCOC(=O)c1c(C)cc(O)cc1O` [Ethyl orsellinate] has a T.vaginalis_%inb_Rep1 [1] of 14.45%, a T.vaginalis_Absorbance_Rep1 [2] of 0.987 and a T.vaginalis_%inb_Rep2 [3] of 11.67%. For the same molecule, the T.vaginalis_Absorbance_Rep2 [4] was 0.817.
Molecule `CC(=O)OC1CCC2(C)C3=C(CCC2C1(C)C)C1(C)CCC(C(C)CCC=C(C)C)C1(C)CC3` (stereo not shown) [Euphol acetate] has a T.vaginalis_%inb_Rep1 [1] of 13.30%, a T.vaginalis_Absorbance_Rep1 [2] of 0.956 and a T.vaginalis_%inb_Rep2 [3] of 13.02%. The T.vaginalis_Absorbance_Rep2 [4] was 0.8.
In the case of `COc1c2c(cc3c1c(=O)c1ccccc1n3C)OCO2` [Evoxanthine], the T.vaginalis_%inb_Rep1 [1] is reported as 15.29%, the T.vaginalis_Absorbance_Rep1 [2] is reported as 0.993 and the T.vaginalis_%inb_Rep2 [3] is reported as 5.42%. It also gave a T.vaginalis_Absorbance_Rep2 [4] of 0.695.
`COc1c(Cl)c(O)c(Cl)c(C)c1C(=O)O[C@H]1[C@H](O)C[C@H](O[C@H]2[C@@H](O)CC(=O)O[C@@H]2C)O[C@@H]1C` [Flambalactone] was tested, and the T.vaginalis_%inb_Rep1 [1] was 13.89%, the T.vaginalis_Absorbance_Rep1 [2] was 0.967 and the T.vaginalis_%inb_Rep2 [3] was 13.52%. The T.vaginalis_Absorbance_Rep2 [4] was 0.807.
